# Assay results taken from PubChem BioAssay (NCI).
#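 Test compounds were applied to cells in 96-well plates for 48 hours at 5 doses. GI50 marks 50% less growth. TGI: total growth inhibition.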
# Tests used:
# Assay in all cases: growth of human tumour cells (NCI), 48 h
# NCI-H522 lung = tested on: NCI-H522 lung
# DMS 114 small cell lung = tested on: DMS 114 small cell lung
# MDA-N = tested on: MDA-N
# SNB-78 CNS = tested on: SNB-78 CNS
# PC-3 prostate = tested on: PC-3 prostate
# HCC-2998 colon = tested on: HCC-2998 colon
# BT-549 breast = tested on: BT-549 breast
# M19-MEL melanoma = tested on: M19-MEL melanoma
# DLD-1 colon = tested on: DLD-1 colon
# T-47D breast = tested on: T-47D breast
# 786-0 renal = tested on: 786-0 renal
# MALME-3M melanoma = tested on: MALME-3M melanoma
# MDA-MB-231 breast = tested on: MDA-MB-231 breast
SMILES,TGI (NCI-H522 lung),TGI (DMS 114 small cell lung),TGI (MDA-N),TGI (SNB-78 CNS),TGI (PC-3 prostate),TGI (HCC-2998 colon),TGI (BT-549 breast),TGI (M19-MEL melanoma),TGI (DLD-1 colon),TGI (T-47D breast),TGI (786-0 renal),TGI (MALME-3M melanoma),TGI (MDA-MB-231 breast),GI50 (HCC-2998 colon),GI50 (MALME-3M melanoma),GI50 (NCI-H522 lung),GI50 (PC-3 prostate),GI50 (T-47D breast),GI50 (MDA-MB-231 breast),GI50 (BT-549 breast)
Cc1ccc2ccc3ccc(C)nc3c2n1,> 100 µM,1.34 µM,> 100 µM,> 100 µM,> 100 µM,> 100 µM,> 100 µM,> 100 µM,> 100 µM,> 100 µM,> 100 µM,> 100 µM,> 100 µM,,,,,,,
Nc1cccc2c1C1=NNC(=O)CC1C2 (centres undefined),> 100 µM,> 100 µM,,> 100 µM,,> 100 µM,,> 100 µM,> 100 µM,,,> 100 µM,,,,,,,,
CNCCCNC1(c2cc3ccccc3s2)CCCCC1,19.1 µM,,5.85 µM,,21.5 µM,2.61 µM,29.8 µM,,,11.9 µM,9.87 µM,4.57 µM,12.6 µM,,,,,,,
N#Cc1c(-c2cccc(Cl)c2)cc(-c2ccc(Cl)cc2)nc1N,30.8 µM,,42.3 µM,,49.2 µM,,36.4 µM,,,> 100 µM,33.5 µM,58.4 µM,32 µM,,,,,,,
CC(C)(O)CO/N=C1\C(c2c(O)[nH]c3ccccc23)=Nc2ccccc21,> 47.8 µM,,> 45 µM,,12.4 µM,3.27 µM,28.6 µM,,,,> 44.4 µM,> 60.6 µM,> 75.7 µM,,,,,,,
Cc1c2cc[n+](C)cc2c(C)c2c1[nH]c1ccc(Cl)cc12,2.38 µM,2.78 µM,> 59.3 µM,2.56 µM,> 43.2 µM,13.8 µM,4.16 µM,3.94 µM,> 100 µM,14.8 µM,5.76 µM,10.4 µM,> 47.5 µM,,,,,,,
CC1=NN(c2cccc(Cl)c2)C(=N/c2nc3ccccc3s2)/C1=C\c1cccs1,93.8 µM,,> 100 µM,,> 100 µM,> 100 µM,,,,> 100 µM,> 100 µM,,> 100 µM,,,,,,,
C[C@H](N[C@H]1CCC[C@]1(O)C#Cc1ccc2c(c1)OCO2)c1ccccc1,,,,,> 25 µM,> 25 µM,,,,> 25 µM,,,> 25 µM,,,,,,,
C[C@@H](CO)C1=CC(C#C[Si](C)(C)C)N(C(=O)Oc2ccccc2)c2ccccc21 (some centres undefined),33.9 µM,,23.7 µM,,64.1 µM,29.9 µM,,,,51.1 µM,31.8 µM,,37.8 µM,,,,,,,
c1ccc2sc(C3(N4CCC5(CC4)OCCO5)CCCCC3)cc2c1,> 100 µM,,> 100 µM,,,90.9 µM,> 100 µM,,,> 100 µM,> 100 µM,> 100 µM,,,,,,,,
C=Cc1cc(OC)c2c(c1)c(=O)oc1c2cc(OC)c2c(O)ccc(C3OC(C)C(O)C(C)(O)C3O)c21 (centres undefined),,0.0393 µM,0.00425 µM,,0.00405 µM,,0.00758 µM,0.16 µM,1.07 µM,0.00439 µM,,,,0.00253 µM,0.00153 µM,,,,,
Cc1c(NC(=O)c2cc([N+](=O)[O-])cc([N+](=O)[O-])c2)c(=O)n(-c2ccccc2)n1C,,,> 100 µM,,> 100 µM,,> 100 µM,,,,> 100 µM,> 100 µM,> 100 µM,,,,,,,
O=C(Nc1cccc([N+](=O)[O-])c1)C(=O)C(C(=O)c1ccccc1F)C1OC(=O)C2C=CC=CC21 (centres undefined),55.7 µM,,,> 100 µM,,> 100 µM,,> 100 µM,> 100 µM,,,,,,,,,,,
N#CCCOCN(CO)c1nc(N(CO)COCCC#N)nc(N(CO)COCCC#N)n1,47.5 µM,52.4 µM,,> 100 µM,,,,50 µM,75.9 µM,,,46.9 µM,,,,,,,,
O=C(Nc1sccc1S(=O)(=O)c1ccc(Cl)cc1)c1ccccc1,> 100 µM,,> 100 µM,,> 100 µM,,> 100 µM,,,> 100 µM,> 100 µM,> 100 µM,> 100 µM,,,,,,,
O=C1/C(=C/c2ccc(Cl)cc2)N=C(c2ccccc2)N1c1nc2c(Cl)cc(Cl)cc2s1,,,39.2 µM,,45.9 µM,> 100 µM,82.9 µM,,,70.2 µM,> 100 µM,,92.3 µM,,,,,,,
COc1cc2c(cc1OC)C1Cc3cc(OC)c(OC)cc3C(C2)O1,,,> 100 µM,,> 100 µM,> 100 µM,> 100 µM,,,> 100 µM,,,> 100 µM,,,,,,,
O=C(NCCNc1nccc(-c2c(-c3cccc(O)c3)nc3sccn23)n1)Nc1cccc(C(F)(F)F)c1,5 µM,,,,12.6 µM,5.77 µM,,,,25.6 µM,,7.3 µM,12.3 µM,2.68 µM,2.09 µM,2.11 µM,2.94 µM,6.52 µM,3.52 µM,
CC(=O)OC[C@@]1(C)[C@@H]2[C@@H]3[C@@]4(CO[C@]3(C)C(=O)[C@@]3(O)C[C@H](C)[C@H](OC(C)=O)[C@@H]3[C@H]4OC(C)=O)[C@H](OC(=O)c3ccccc3)C[C@@H]21,> 100 µM,,> 100 µM,,> 100 µM,> 100 µM,> 100 µM,,,> 100 µM,> 100 µM,> 100 µM,> 100 µM,,,,,,,
CNS(=O)(=O)c1ccc2[nH]c(O)c(C3=Nc4ccccc4C3=O)c2c1,> 100 µM,,> 100 µM,,> 100 µM,> 100 µM,> 100 µM,,,> 100 µM,,> 100 µM,> 100 µM,,,,,,,
COc1cc(NC(=O)CSc2nc3ccccc3c(=O)n2CCc2ccccc2)cc(OC)c1OC,4.2 µM,,,,,,9.47 µM,,,,,5.9 µM,3.71 µM,,2.16 µM,1.65 µM,,,1.47 µM,3.22 µM
CCCC1=C(C(=O)OCC)C(c2ccccc2OC)C(C#N)=C(N)O1 (centres undefined),60.5 µM,,,,,> 100 µM,> 100 µM,,,> 100 µM,,> 100 µM,57.6 µM,77.3 µM,27.8 µM,25.5 µM,,43.4 µM,22.4 µM,62.9 µM
NC(=O)Nc1ccc(C(=O)NCCCNC(=O)c2ccc(NC(N)=O)cc2)cc1,> 100 µM,,> 100 µM,,> 100 µM,> 100 µM,> 100 µM,,,> 100 µM,,> 100 µM,,,,,,,,
CSc1ccc(-c2cc(-c3nc4ccccc4[nH]3)nc(N)c2C#N)cc1,46.8 µM,,66.1 µM,,98.7 µM,33.1 µM,59.6 µM,,,54.7 µM,> 100 µM,44.5 µM,36.1 µM,,,,,,,
O=C1C(c2c(O)[nH]c3ccccc23)=Nc2ccc(Br)cc21,> 100 µM,,> 100 µM,,49.7 µM,> 100 µM,77.2 µM,,,> 100 µM,28.8 µM,> 100 µM,77 µM,,,,,,,
Cc1nc2c(O)cc3c4c(n(Cc5ccccc5)c3c2nc1C)C(=O)CCC4,,,> 100 µM,,> 100 µM,> 100 µM,,,,,69.1 µM,> 100 µM,> 100 µM,,,,,,,
CC(=O)N1CC(=O)NC1=S,> 100 µM,> 100 µM,,> 100 µM,,,,> 100 µM,> 100 µM,,> 100 µM,> 100 µM,,,,,,,,
O=C1C(=c2cc3c(c4ccccc24)=NC24CCCCC2C(c2ccccc2)C=C(c2ccccc2)N34)C(=O)c2ccccc21 (centres undefined),47.5 µM,,> 100 µM,,> 100 µM,,,,,> 100 µM,> 100 µM,> 100 µM,> 100 µM,,,,,,,
